In ChEMBL document CHEMBL3885881, “DrugMatrix”:

How the values were obtained:
Rattus norvegicus [1] = organism: Rattus norvegicus; type: toxicity, organism-based, Sprague-Dawley; settings: in vivo, po, 17 mg/kg, 24 h, route oral GAVAGE, dose level High, time 1 day, vehicle .5 % CMC
Description: DrugMatrix - Regimen: Single

Rattus norvegicus [2] = organism: Rattus norvegicus; assay: DrugMatrix - Regimen: Daily Repeat; type: toxicity, organism-based, Sprague-Dawley; parameters: regimen Daily Repeat, gender Male, age 6-8 weeks; settings: in vivo, po, 17 mg/kg, 72 h, route oral GAVAGE, dose level High, time 3 day, vehicle .5 % CMC

Structure (SMILES): COc1ccc(C(=O)Nc2c(Cl)cncc2Cl)cc1OC1CCCC1
- ABSOLUTE EOSINOPHIL (Rattus norvegicus [1]; tissue Blood): 176.33 CELLS/uL
- ABSOLUTE LYMPHOCYTE (Rattus norvegicus [1]; tissue Blood): 11028.33 CELLS/uL
- ABSOLUTE MONOCYTE (Rattus norvegicus [1]; tissue Blood): 409.33 CELLS/uL
- ABSOLUTE SEGMENTED NEUTROPHIL (Rattus norvegicus [1]; tissue Blood): 1619.33 CELLS/uL
- BASOPHIL (Rattus norvegicus [1]; tissue Blood): 0%
- EOSINOPHIL (Rattus norvegicus [1]; tissue Blood): 1.33%
- ERYTHROCYTE COUNT (Rattus norvegicus [1]; tissue Blood): 5.33 x10E6/uL
- HEMATOCRIT (Rattus norvegicus [1]; tissue Blood): 33.03%
- HEMOGLOBIN (Rattus norvegicus [1]; tissue Blood): 12.1 G/DL
- LEUKOCYTE COUNT (Rattus norvegicus [1]; tissue Blood): 13.23 x10E3/uL
- LYMPHOCYTE (Rattus norvegicus [1]; tissue Blood): 83.33%
- MEAN CORPUSCULAR HEMOGLOBIN (Rattus norvegicus [1]; tissue Blood): 22.7 pg
- MEAN CORPUSCULAR HEMOGLOBIN CONCENTRATION (Rattus norvegicus [1]; tissue Blood): 36.67 G/DL
- MEAN CORPUSCULAR VOLUME (Rattus norvegicus [1]; tissue Blood): 61.9 fL
- MONOCYTE (Rattus norvegicus [1]; tissue Blood): 3%
- NEUTROPHIL (Rattus norvegicus [1]; tissue Blood): 12.33%
- NUCLEATED RED BLOOD CELLS (Rattus norvegicus [1]; tissue Blood): 0 /100WBC
- PLATELET COUNT (Rattus norvegicus [1]; tissue Blood): 1139 x10E3/uL
- ALANINE AMINOTRANSFERASE (Rattus norvegicus [1]; tissue Plasma): 61.33 u/L
- ALBUMIN (Rattus norvegicus [1]; tissue Plasma): 4.37 G/DL
- ALKALINE PHOSPHATASE (Rattus norvegicus [1]; tissue Plasma): 327.67 u/L
- ASPARTATE AMINOTRANSFERASE (Rattus norvegicus [1]; tissue Plasma): 116 u/L
- BLOOD UREA NITROGEN (Rattus norvegicus [1]; tissue Plasma): 15.67 mg/dL
- CARBON DIOXIDE (Rattus norvegicus [1]; tissue Plasma): 34.33 mmol/L
- CHLORIDE (Rattus norvegicus [1]; tissue Plasma): 101.33 MEQ/L
- CHOLESTEROL (Rattus norvegicus [1]; tissue Plasma): 76 mg/dL
- CREATININE (Rattus norvegicus [1]; tissue Plasma): 0.2 mg/dL
- GLUCOSE (Rattus norvegicus [1]; tissue Plasma): 153.67 mg/dL
- LACTATE DEHYDROGENASE (Rattus norvegicus [1]; tissue Plasma): 163.33 u/L
- LIPASE (Rattus norvegicus [1]; tissue Plasma): 9 u/L
- PHOSPHORUS (Rattus norvegicus [1]; tissue Plasma): 12.6 mg/dL
- POTASSIUM (Rattus norvegicus [1]; tissue Plasma): 6.66 MEQ/L
- SODIUM (Rattus norvegicus [1]; tissue Plasma): 148.6 MEQ/L
- TOTAL BILIRUBIN (Rattus norvegicus [1]; tissue Plasma): 0.2 mg/dL
- TOTAL PROTEIN (Rattus norvegicus [1]; tissue Plasma): 6.3 G/DL
- URIC ACID (Rattus norvegicus [1]; tissue Plasma): 1.2 mg/dL
- ABSOLUTE BASOPHIL (Rattus norvegicus [2]; tissue Blood): 0 CELLS/uL
- ABSOLUTE EOSINOPHIL (Rattus norvegicus [2]; tissue Blood): 110.33 CELLS/uL
- ABSOLUTE LYMPHOCYTE (Rattus norvegicus [2]; tissue Blood): 17172 CELLS/uL
- ABSOLUTE MONOCYTE (Rattus norvegicus [2]; tissue Blood): 305.67 CELLS/uL
- ABSOLUTE SEGMENTED NEUTROPHIL (Rattus norvegicus [2]; tissue Blood): 3612 CELLS/uL
- BASOPHIL (Rattus norvegicus [2]; tissue Blood): 0%
- EOSINOPHIL (Rattus norvegicus [2]; tissue Blood): 0.67%
- ERYTHROCYTE COUNT (Rattus norvegicus [2]; tissue Blood): 5.87 x10E6/uL
- HEMATOCRIT (Rattus norvegicus [2]; tissue Blood): 36.6%
- HEMOGLOBIN (Rattus norvegicus [2]; tissue Blood): 13.33 G/DL
- LEUKOCYTE COUNT (Rattus norvegicus [2]; tissue Blood): 21.2 x10E3/uL
- LYMPHOCYTE (Rattus norvegicus [2]; tissue Blood): 82.67%
- MEAN CORPUSCULAR HEMOGLOBIN (Rattus norvegicus [2]; tissue Blood): 22.73 pg
- MEAN CORPUSCULAR HEMOGLOBIN CONCENTRATION (Rattus norvegicus [2]; tissue Blood): 36.47 G/DL
- MEAN CORPUSCULAR VOLUME (Rattus norvegicus [2]; tissue Blood): 62.43 fL
- MONOCYTE (Rattus norvegicus [2]; tissue Blood): 1.33%
- NEUTROPHIL (Rattus norvegicus [2]; tissue Blood): 15.33%
- NUCLEATED RED BLOOD CELLS (Rattus norvegicus [2]; tissue Blood): 0 /100WBC
- PLATELET COUNT (Rattus norvegicus [2]; tissue Blood): 1117.33 x10E3/uL
- ALANINE AMINOTRANSFERASE (Rattus norvegicus [2]; tissue Plasma): 51.67 u/L
- ALBUMIN (Rattus norvegicus [2]; tissue Plasma): 3.77 G/DL
- ALKALINE PHOSPHATASE (Rattus norvegicus [2]; tissue Plasma): 361.67 u/L
- ASPARTATE AMINOTRANSFERASE (Rattus norvegicus [2]; tissue Plasma): 68.67 u/L
- BLOOD UREA NITROGEN (Rattus norvegicus [2]; tissue Plasma): 17.33 mg/dL
- CARBON DIOXIDE (Rattus norvegicus [2]; tissue Plasma): 31.33 mmol/L
- CHLORIDE (Rattus norvegicus [2]; tissue Plasma): 103 MEQ/L
- CHOLESTEROL (Rattus norvegicus [2]; tissue Plasma): 74.67 mg/dL
- CREATININE (Rattus norvegicus [2]; tissue Plasma): 0.18 mg/dL
- GLUCOSE (Rattus norvegicus [2]; tissue Plasma): 188.33 mg/dL
- LACTATE DEHYDROGENASE (Rattus norvegicus [2]; tissue Plasma): 139 u/L
- LIPASE (Rattus norvegicus [2]; tissue Plasma): 9.33 u/L
- PHOSPHORUS (Rattus norvegicus [2]; tissue Plasma): 12.77 mg/dL
- POTASSIUM (Rattus norvegicus [2]; tissue Plasma): 6.6 MEQ/L
- SODIUM (Rattus norvegicus [2]; tissue Plasma): 149.03 MEQ/L
- TOTAL BILIRUBIN (Rattus norvegicus [2]; tissue Plasma): 0.13 mg/dL
- TOTAL PROTEIN (Rattus norvegicus [2]; tissue Plasma): 6.1 G/DL
- URIC ACID (Rattus norvegicus [2]; tissue Plasma): 2.07 mg/dL
